System: JFH 5a-GFP
Experiment: Real time assessment of anti-viral activity in individual JFH 5a-GFP infected Huh 7.5.1 cells (time-lapse confocal GFP fluorescence)
Type: cell-based, hepatitis C virus
Settings: 1000 IU/ml IFN-α, monitored every 12 hours up to 60 hours, FIGS. 13-16
Protocol: Huh 7.5.1 cells were infected with culture supernatant obtained from the transformant transfected with JFH 5a-GFP RNA (the transformant was transformed with the introduction of JFH 5a-GFP RNA via electroporation into Huh 7.5.1 cells, in Example 2-1).
After treating or mock-treating (i.e., no IFN-α treated) the transformant with IFN-α, GFP fluorescence was monitored every 12 hours up to 60 hours by using time-lapse confocal microscopy (Zeiss LSM 5 Live). For time-lapse imaging, coverslips were mounted onto the microscope stage, which was equipped with a temperature- and gas-controlled chamber (Chamide IC, Live Cell Instrument, Korea).
In addition, quantitative analyses of the fluorescence images of 8 cells were made by using MetaMorph software. The grouping of the figures was made depending on whether the cell was treated with IFN-α.
FIGS. 10 and 14 are graphs showing changing fluorescence levels in 8 transformants, in absolute values. FIGS. 11 and 15 are graphs showing changing fluorescence levels over time in 8 transformants, in relative values against the starting value, i.e., the value given to the transformants with no IFN-α treated.

## Interferon-alpha [IFN-α]
  5a-GFP fluorescence intensities over time in 8 transformants: seven among eight transformants showed decreasing fluorescence intensities over time

Source: patent publication US20100215696A1, “E[…] C VIRUS MUTANT, A HEPTITIS C VIRUS MUTANT […] GENE, A METHOD OF PREPARING OF HCV VACCINE USING THE SAME AND A METHOD OF SCREENING ANTI HCV COMPOSITION USING THE SAME” (priority 2007, published 2010)
